According to US9457016B2, “Methods for treating polycystic kidney disease” (New York University, priority 2013, dated 2016):

Tests used:
mTor [1] = test: mTOR activation by anti-phospho-S6 immunoblot after amino acid refeeding; assay type: cell-based, human; conditions: ADPKD cells refed glutamine and lysine 30 or 60 minutes after 3 hours amino acid deprivation
Experimental: FIG. 14. […] Cells were then lysed and mTOR activation was assessed by immunoblotting with anti-phospho-S6 antibodies (pS6). To control for loading, the same samples were immunoblotted with antibodies to actin (Actin).

[2] = system: Pkd1^fl/fl; Pkhd1-Cre mice; test: Pkd1fl/fl; Pkhd1-Cre mouse model of ADPKD; assay type: in vivo
Source text: As described in Karihaloo et al. (2011, J Am Soc Nephrol 22: 1809-1814), Pkd1^fl/fl; Pkhd1-Cre mice may be generated by crossing Pkd1fl/fl mice with Pkhd1-Cre mice13 so as to achieve kidney-specific deletion of the Pkd1 allele. See also Shibazaki et al. (2008, Hum Mol Genet 17, 1505-1516) and Patel et al. (2008, Hum Mol Genet 17, 1578-1590). The entire content of each of Karihaloo et al., Shibazaki et al., and Patel et al. is incorporated herein by reference.
Pkhd-Cre Mice: This is a very robust and reproducible early model of PKD. The Somlo lab has shown that Pkhd-cre expresses and deletes predominantly in collecting tubules Ma et al. (2013, Nature genetics, 45: 1004-1012; the entire content of which is incorporated herein by reference).

mTor [3] = test: Recruitment of mTor to lysosome, immunofluorescence with LAMP; assay type: cell-based, human; conditions: ADPKD cells refed with amino acids (QL)
Source text: (A) Schematic depicting mTor activation, which is mediated by the recruitment of mTor to the lysosome. (B) ADPKD cells were stimulated as in FIG. 14 and then subjected to immunofluorescence analysis with antibodies to LAMP (lysosomal associated membrane protein) which stains lysosomes and mTor. Co-localization is shown by a yellow signal following the merging of the green mTor signal and the red LAMP signal. Refeeding with amino acids (QL) led to colocalization or recruitment of mTor to the lysosome as manifested by yellow staining in the merged image (compare −QL with +QL), which was abolished by treatment with BPTES.

[4] = system: PKD1^flox/flox; Tamoxifen-Cre mice; assay type: in vivo; conditions: BPTES 12.5 mg/kg IP BID, postnatal day 15-32, N=4, vs vehicle control
Experimental: FIG. 12A-C. […] Mice were sacrificed on day 32 and analyzed. (A) Scan of sagittal section of littermates treated with BPTES or vehicle control; (B) Kidney wt/body wt; (C) cystic index.
Cre recombinase was induced on postnatal day 10 by administering tamoxifen (10 mg/40 g) intraperitoneally (IP) on two consecutive days. […] Only same sexed mice from same litters were compared.
Early Models. PKD1^flox/flox; Tamoxifen-Cre Mice: The present inventors obtained the tamoxifen-Cre mouse model from G. Germino. For early onset disease, Cre recombinase is induced at day 10 by administering tamoxifen (10 mg/40 g) intraperitoneally (IP) on 2 consecutive days as described in FIG. 12 above and in Piontek et al. (2007, Nature medicine, 13: 1490-1495; the entire content of which is incorporated herein by reference).

ADPKD cells [5] = test: Cyst formation of ADPKD cells plated in collagen, forskolin stimulated; assay type: cell-based, human
Experimental: FIG. 1. […] Images are at 10×. BF=bright field.
FIG. 2. Quantification of cyst size and cyst number in ADPKD cells incubated with or without BPTES. Total number of cysts in FIG. 1 was counted and stratified by cyst size. Asterisks indicate statistically significant findings.
FIG. 10. siRNA to Gls1 inhibits cyst formation of ADPKD cells. ADPKD cells were transfected with a control or siRNA to Gls1 and cyst formation was assessed. Number of cysts in control (blue), siRNA transfected cells (green), or siRNA transfected cells cultured with dimethyl α-ketoglutarate (red).
FIG. 10 depicts results from experiments using siRNA to Gls1 to determine the effects of same on cyst formation of ADPKD cells. […] The following are exemplary siRNA sequences used for inhibition of Gls1 […] (SEQ ID NO: 1); SASI_Hs01_00071573-[…][dT][dT] (SEQ ID NO: 2); 2260 NM_014905-[…] (SEQ ID NO: 3); SASI_Hs01_00071574-[…][dT][dT] (SEQ ID NO: 4); 1081 NM_014905-[…] (SEQ ID NO: 5).
The present inventors have made the surprising discovery that inhibiting glutaminase 1 (gls1) blocks cyst formation and proliferation by ADPKD cells. […] ADPKD cells were plated in collagen and stimulated with the cyclic 3′-5′-adenosine monophosphate (cAMP) agonist forskolin. […] The results are depicted graphically in FIG. 2, wherein the data were stratified according to both the number of observable cysts and their size.

ADPKD cells [6] = test: Seahorse analysis of ATP production and mitochondrial oxygen consumption; assay type: cell-based, human
Experimental: FIG. 13A-B. Seahorse analysis of ADPKD cells. ADPKD cells that were unstimulated or stimulated with forskolin in the presence or absence of BPTES and mitochondrial oxygen consumption was determined by seahorse analysis. (A) Schematic of the method and analysis. Oligomycin inhibits ATP synthase. FCCP is a mitochondrial uncoupler and leads to maximal OCR and rotenone interferes with electron transport. (B) Inhibition of ATP generation was also found by Seahorse analysis. ADPKD cells were unstimulated in the absence (C) or presence of BAPTES (B) or stimulated with forskolin in the absence (F) or presence of BPTES (FB).
The decreased generation of α-ketoglutarate, which feeds directly into tricarboxylic acid (TCA) would be predicted to lead to decreased TCA intermediates required for mitochondrial respiration and ATP generation. Seahorse analysis (Seahorse Biosciences) was performed on ADPKD cells that were either unstimulated or stimulated with forskolin in the presence or absence of BPTES.

ADPKD cells [7] = test: Intracellular ATP levels; assay type: cell-based, human; conditions: 24 hours
Source text: α-ketoglutarate also feeds directly into the tricarboxylic acid (TCA) cycle and therefore metabolism of α-ketoglutarate is an important source of ATP from glutamine.

[8] = cited from earlier work
GLS1 = biological target: T1, GLS1 (Homo sapiens, UniProt O94925); conditions: dimeric vs tetrameric GLS1; cited from earlier work
T1 sequence (O94925 55-669): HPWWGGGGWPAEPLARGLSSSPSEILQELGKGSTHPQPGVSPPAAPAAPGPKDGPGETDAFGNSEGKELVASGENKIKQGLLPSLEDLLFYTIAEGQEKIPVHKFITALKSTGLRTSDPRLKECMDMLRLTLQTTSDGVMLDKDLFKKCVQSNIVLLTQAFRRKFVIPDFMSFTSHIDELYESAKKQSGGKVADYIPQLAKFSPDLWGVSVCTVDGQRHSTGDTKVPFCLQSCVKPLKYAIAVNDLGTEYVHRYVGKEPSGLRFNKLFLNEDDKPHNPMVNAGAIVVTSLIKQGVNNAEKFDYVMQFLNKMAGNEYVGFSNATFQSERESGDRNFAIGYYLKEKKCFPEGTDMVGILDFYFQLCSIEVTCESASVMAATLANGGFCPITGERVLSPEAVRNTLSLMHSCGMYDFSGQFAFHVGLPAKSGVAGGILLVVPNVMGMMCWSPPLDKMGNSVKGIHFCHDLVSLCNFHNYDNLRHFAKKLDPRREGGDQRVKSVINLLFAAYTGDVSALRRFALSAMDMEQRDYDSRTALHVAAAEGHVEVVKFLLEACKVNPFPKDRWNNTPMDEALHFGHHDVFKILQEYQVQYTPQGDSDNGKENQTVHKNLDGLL

ADPKD cells [9] = test: 8-bromo-cAMP stimulated proliferation, MTT assay; assay type: cell-based, human; conditions: 8-bromo-cAMP + BPTES
ADPKD cells [10] = test: Forskolin-induced proliferation, MTT assay; assay type: cell-based, human; conditions: co-culture of ADPKD cells with α-ketoglutarate
Experimental: FIG. 3. […] Proliferation was then quantitated 24 hours later using the MTT assay kit (Promega).
Elevated intracellular concentration of cAMP is characteristic of ADPKD cells in vivo and mediates activation of signaling pathways that lead to proliferation of ADPKD cells. Gls1 is also critical for proliferation of ADPKD cells.

[11] = BPTES 12.5 mg/kg IP QOD, postnatal day 10-24, vs vehicle control
[12] = ADPKD cells in collagen, forskolin, cultured 2 weeks with or without BPTES

O=C(Cc1ccccc1)Nc1nnc(CCSCCc2nnc(NC(=O)Cc3ccccc3)s2)s1 [BPTES]
mTor activation (pS6) (mTor [1]): inhibits mTor activation
cyst volume [2, 11]: significantly decreased
kidney size [2, 11]: significantly decreased
kidney function ([2]; following BPTES administration): some preservation/restoration of kidney function was observed
colocalization or recruitment of mTor to the lysosome (mTor [3]): abolished
cyst growth [4]: statistically significant inhibition of cyst growth
number of cysts (ADPKD cells [5]; [12]): markedly reduces the number of cysts
size of cysts (ADPKD cells [5]; [12]): profoundly decreases the size of those cysts that are formed
basal and forskolin stimulated ATP production (ADPKD cells [6]): inhibited
basal and forskolin stimulated mitochondrial O2 consumption (ADPKD cells [6]): inhibited
intracellular ATP levels (ADPKD cells [7]): significant decrease

CN(C)c1ccc(C2Nc3ccc4ccccc4c3C3=C2C(=O)CC(C)(C)C3)cc1Br (stereo not shown) [compound 968, 5-(3-bromo-4-(dimethylamino)phenyl)-2,2-dimethyl-2,3,5,6-tetrahydrobenzo[a]phenanthridin-4(1H)-one]
aqueous solubility [8]: poor aqueous solubility
inhibition of GLS1 oligomeric forms (GLS1): only inhibits the nonactivated dimeric GLS1 and not the active tetramer

COC(=O)CCC(=O)C(=O)OC [dimethyl α-ketoglutarate]
rescue of BPTES inhibition of proliferation (ADPKD cells [9]): rescued the inhibition of proliferation
reversal of BPTES inhibition of proliferation (ADPKD cells [10]): reversed the inhibition of proliferation by BPTES
rescue of cyst formation in siRNA transfected cells (ADPKD cells [5]; dimethyl α-ketoglutarate added to the medium): statistically significant rescue of cyst formation
